Data reported in publication PMC9002265, “A New Series of Strigolactone Analogs Derived From Cinnamic Acids as Germination Inducers for Root Parasitic Plants” (Frontiers in Plant Science, 2022).
Read-outs that look alike come from different tables or passages of the source.

Tests used:
ShHTL6 = molecular target: T1, ShHTL6 (Striga hermonthica, UniProt A0A0M4AUV4); assay: YLG assay (inhibition of YLG hydrolysis) with recombinant ShHTL6; assay type: biochemical
T1 sequence (A0A0M4AUV4 1-271): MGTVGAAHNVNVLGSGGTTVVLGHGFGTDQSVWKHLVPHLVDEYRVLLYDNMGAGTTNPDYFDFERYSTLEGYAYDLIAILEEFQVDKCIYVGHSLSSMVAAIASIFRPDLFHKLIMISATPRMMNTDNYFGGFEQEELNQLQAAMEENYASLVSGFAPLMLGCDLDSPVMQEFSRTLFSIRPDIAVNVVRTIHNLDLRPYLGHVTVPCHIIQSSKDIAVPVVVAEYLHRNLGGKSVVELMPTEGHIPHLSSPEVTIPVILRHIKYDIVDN
Method: (§1) The ORF fragment of ShHTL6 and ShHTL7 was synthesized using IDT gBlock service. The PCR amplified ShHTL6 and ShHTL7 fragment was digested with Nco I and EcoR I, and the digested product was introduced into a modified pET28 vector with an N-terminal His8 tag. Escherichia coli BL21(DE3) was used for protein expression. The overnight culture (12 ml) was added to a fresh LB medium (1.2 L) containing kanamycin (50 mg/L) at 37°C. After OD600 reached 0.8, 0.1 mM IPTG was added and the cell was further incubated at 16°C for 21 h. The culture medium was centrifuged at 3700 g and the pellet was stored at −20°C until use. The pellet was resuspended and sonicated in a lysis buffer (50 mM Tris buffer (pH 8.0) containing 500 mM NaCl, 10 mM 2-mercaptoethanol, and 10% glycerol). The supernatant was purified by Ni Sepharose TM 6 Fast Flow (500 μl, Cytiva). After washing with the washing buffer (50 mM Tris buffer (pH 8.0) containing 500 mM NaCl and 20 mM imidazole), The bound protein was eluted with elution buffer (50 mM Tris buffer (pH 8.0) containing 500 mM NaCl and 200 mM imidazole). The eluate was concentrated using VIVASPIN Turbo 15 (Sartorius), and the concentration was adjusted to 5 mg/ml. The purified protein was aliquoted to the appropriate volume, immediately frozen in liquid nitrogen, and stored at −80°C until use.
(§2) After YLG was incubated with recombinant ShHTL6 or ShHTL7 for 1 h, the fluorescence was measured by spectraMax i5 (Molecular Devices) at excitation by 480 nm and detection by 520 nm. IC50 values were calculated using the online tool Quest GraphTM IC50 Calculator (AAT Bioquest, Inc., United States; https://www.aatbio.com/tools/ ic50-calculator).

ShHTL7 [1] = molecular target: T2, ShHTL7 (Striga hermonthica, UniProt A0A0M3PNA2); assay: YLG assay (inhibition of YLG hydrolysis) with recombinant ShHTL7; assay type: biochemical
T2 sequence (A0A0M3PNA2 1-271): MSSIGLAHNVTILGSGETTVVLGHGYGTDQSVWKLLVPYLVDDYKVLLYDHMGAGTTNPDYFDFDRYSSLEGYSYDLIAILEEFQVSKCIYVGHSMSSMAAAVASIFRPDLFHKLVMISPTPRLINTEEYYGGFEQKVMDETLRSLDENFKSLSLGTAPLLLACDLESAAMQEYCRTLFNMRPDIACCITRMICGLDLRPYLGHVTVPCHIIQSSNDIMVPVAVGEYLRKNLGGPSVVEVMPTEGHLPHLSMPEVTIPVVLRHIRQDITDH
Method: as §1, §2

ShHTL7 [2] = molecular target: T2, ShHTL7; assay: Hydrolysis assay with recombinant ShHTL7; assay type: biochemical; conditions: 10 μM substrate, 30°C, 60 min
Method: as §1
(§3) Hydrolysis assays were carried out at 30°C for 60 min in 100 μl of a reaction buffer containing 0.13 pmol recombinant ShHTL7 or AtD14, 10 μM of substrate in 50 mM Phosphate-Na buffer (pH 7.0) containing 2% acetone. The enzyme reaction was stopped by addition of 100 μl of acetonitrile containing 1-naphtaleneacetic acid (NAA; 0.5 ng/μl) as an internal standard. After centrifuged at 13,000 rpm for 5 min, each sample was subjected to LC–MS/MS analysis equipped with reverse-phase column (CORTECS UPLC Phenyl 1.6 μm, ϕ2.1 × 75 mm; Waters). The concentration of remaining substrate and reaction product was calculated by using NAA as an internal standard. Detailed information about the analytical condition is described in Supplementary Table 1.

AtD14 = molecular target: T3, AtD14 (Arabidopsis thaliana, UniProt Q9SQR3); assay: Hydrolysis assay with recombinant AtD14; assay type: biochemical; conditions: 10 μM substrate, 30°C, 60 min
T3 construct: The cDNA of AtD14 was introduced into pMALHis vector; MBP; His6; made in house; host or cells: E. coli BL21 (DE3)
T3 sequence (Q9SQR3 1-267): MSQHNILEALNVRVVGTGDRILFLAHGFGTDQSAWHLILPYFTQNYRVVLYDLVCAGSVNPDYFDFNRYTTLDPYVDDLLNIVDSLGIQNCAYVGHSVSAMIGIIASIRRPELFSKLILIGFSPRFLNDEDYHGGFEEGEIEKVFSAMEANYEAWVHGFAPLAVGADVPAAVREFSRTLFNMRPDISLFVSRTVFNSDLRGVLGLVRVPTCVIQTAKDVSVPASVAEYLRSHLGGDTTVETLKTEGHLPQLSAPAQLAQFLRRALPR
Method: The cDNA of AtD14 was introduced into pMALHis vector that has both MBP-tag and His6-tag. The vector was transformed in to E. coli BL21 (DE3) and the cell was precultured in LB medium containing 50 μg/ml ampicillin. Overnight cultures (10 ml) were added to fresh LB medium (1 L) containing 50 μg/ml ampicillin and it was cultured at 37°C. After OD600 reached to 0.8, the cultures were cooled at 16°C for 1 h, and then 0.1 mM IPTG was added. The culture was further incubated at 16°C for 20 h. The culture medium was centrifuged at 3,700 g and the pellet was stored at −20°C until use. The pellet was resuspended and sonicated in lysis buffer (50 mM Tris buffer (pH 8.0) containing 500 mM NaCl, 10 mM 2-mercaptoethanol, and 10% glycerol). The supernatant was purified by Ni Sepharose TM 6 Fast Flow (500 μl, Cytiva) After washing with the washing buffer (50 mM Tris buffer (pH 8.0) containing 500 mM NaCl and 20 mM imidazole), The bound protein was eluted with elution buffer (50 mM Tris buffer (pH 8.0) containing 500 mM NaCl and 200 mM imidazole). The eluate was concentrated using VIVASPIN Turbo 15 (Sartorius), and the concentration was adjusted to 5 mg/ml. The purified protein was aliquoted to the appropriate volume, immediately frozen in liquid nitrogen, and stored at −80°C until use.
as §3

Orobanche minor seeds = assay: Germination assay, Orobanche minor seeds; assay type: in vivo; conditions: O. minor seeds; result in words
Method: Orobanche minor seeds were washed with 70% EtOH, and then sonicated for 4 min in 1% sodium hypochlorite solution containing 0.2% Tween-20. The seeds were then washed 10 times with sterile water and suspended in 0.1% agar solution. The seeds were loaded onto 5-mm glass fiber filter disks (20–70 seeds/disk) and were conditioned at 23°C for 15 days. Each disk was transferred into a 96-well plate. A 30 μl aliquot of test chemical solution was added to the well. For the germination assay, the chemical solutions were prepared by 1,000 times dilution from each acetone stock solution with water (final acetone concentration was 0.1%). GR24 solution (0.1% acetone) and sterile water (0.1% acetone) was used as positive and negative control, respectively. The 96 well plates were incubated for 5 days at 23°C and the number of total seeds and germinated seeds was counted.

Striga hermonthica seeds = system: Striga hermonthica seeds; parameters: method as in Uraguchi et al., 2018; conditions: ref Uraguchi et al., 2018; cited from earlier work
[3] = system: Arabidopsis wild type Col-0; assay: Growth promoting assay and root phenotypic analysis; assay type: in vivo; conditions: 1 μM on agar plate
Method: Sterilized seeds of the Arabidopsis wild type Col-0 were put on the plate containing 1% (w/v) agar-solidified 0.5× Murashige and Skoog (MS) medium, 1% sucrose. Test compounds were dissolved in the medium at 1 μM by 10,000 times dilution from each acetone stock (final concentration of acetone was 0.01% (v/v)). To evaluate the growth promoting effect, these seedlings were cultured horizontally at 22°C for 20 days under LED light (105 μmol/m^2/s) with a 16 h light/8 h dark photoperiod. After the cultivation, flesh weight of shoot was measured. For root phenotypic analysis, these seedlings were cultured verticaly at 22°C for 11 days under LED light (105 μmol/m^2/s) with a 16 h light/8 h dark photoperiod. After the cultivation, root length was measured by using ImageJ software and number of lateral roots was counted by using a microscope.

[4] = Time course monitoring of degradation in hydroponic culture; assay type: physicochemical; conditions: 1 μM, within 1 week, pH 5.7, LC-MS/MS
Method: t-CASL1, c-CASL1, PPASL, and GR5 were separately added to 15 ml tubes containing hydroponic culture. The final concentration of the test compounds is 1 μM and acetone was adjusted to 0.01% (v/v). These solutions were incubated under the same conditions as branching assay. After incubation for 0, 5, 24 72, or 168 h, 495 μl of hydroponic culture containing test compounds was collected and 5 μl of NAA solution (10 μM) was added as an internal standard. The solution was extracted with ethyl acetate. The ethyl acetate phase was dried up under the nitrogen gas and dissolved in acetonitrile. These samples were subjected to LC–MS/MS analysis equipped with reverse-phase column (CORTECS UPLC Phenyl 1.6 μm, ϕ2.1 × 75 mm; Waters). Each peak area of test chemicals and internal standard was calculated, and the remaining percentage of teste chemicals was calculated. At the same time, the degradation products of test compounds (CA or PPA) were also analyzed. Detailed information about the analytical condition was described in Supplementary Table 1.

[5] = 1 h incubation, read-out: IC50 in YLG assay
[6] = read-out: IC50 in YLG assay, 1 h incubation

CC1=C[C@H](O/C=C2/C(=O)O[C@@H]3c4ccccc4C[C@H]23)OC1=O (relative stereo) [GR24, reference compound]
IC50 (ShHTL6; ShHTL6, YLG hydrolysis, 1 h incubation, read-out: IC50 in YLG assay): 2.35 µM
IC50 (ShHTL7 [1]; [5]): 0.17 µM

CC1=CC(OC(=O)CCc2ccccc2)OC1=O (stereo not shown) [PPASL]
hydrolysis by HTL7 (ShHTL7 [2]): can hydrolyze
hydrolysis by AtD14 (AtD14): can hydrolyze
IC50 (ShHTL6): 2.24 µM
IC50 (ShHTL7 [1]; [5]): 1.46 µM
germination-inducing activity compared with c-CASL1 or t-CASL1 (Orobanche minor seeds): much weaker activity

CCCCOc1ccc(S(=O)(=O)N2CCN(C(=O)OC3C=C(C)C(=O)O3)CC2)cc1 (stereo not shown) [SPL7, sphynolactone-7]
concentration inducing S. hermonthica germination (Striga hermonthica seeds): fM concentrations

CC1=CC(OC(=O)/C=C\c2ccc(C)cc2)OC1=O (stereo not shown) [c-CASL2]
IC50 (ShHTL7 [1]; [5]): 0.68 µM

CC1=CC(OC(=O)/C=C\c2ccc(O)cc2)OC1=O (stereo not shown) [c-CASL3]
IC50 (ShHTL7 [1]; [5]): 3.43 µM

COc1ccc(/C=C\C(=O)OC2C=C(C)C(=O)O2)cc1 (stereo not shown) [c-CASL4]
IC50 (ShHTL7 [1]; [5]): 0.66 µM

CCOc1ccc(/C=C\C(=O)OC2C=C(C)C(=O)O2)cc1 (stereo not shown) [c-CASL5]
IC50 (ShHTL7 [1]; [6]): 0.31 µM

CC1=CC(OC(=O)/C=C\c2ccc([N+](=O)[O-])cc2)OC1=O (stereo not shown) [c-CASL6]
IC50 (ShHTL7 [1]; [5]): 0.25 µM

CC1=CC(OC(=O)/C=C\c2ccc(F)cc2)OC1=O (stereo not shown) [c-CASL7]
IC50 (ShHTL7 [1]; [5]): 1.14 µM

CC1=CC(OC(=O)/C=C\c2ccc(Br)cc2)OC1=O (stereo not shown) [c-CASL8]
IC50 (ShHTL7 [1]; [5]): 0.36 µM

CC1=CC(OC(=O)/C=C\c2ccc(Cl)cc2)OC1=O (stereo not shown) [c-CASL9]
IC50 (ShHTL7 [1]; [5]): 0.34 µM

CC1=CC(OC(=O)/C=C\c2ccc(C(F)(F)F)cc2)OC1=O (stereo not shown) [c-CASL10]
IC50 (ShHTL7 [1]; [5]): 0.22 µM

CC1=CC(OC(=O)/C=C2/CCc3ccccc32)OC1=O (stereo not shown) [c-indCASL]
IC50 (ShHTL7 [1]; [5]): 2.01 µM

CC1=CC(OC(=O)/C=C2/CCCc3ccccc32)OC1=O (stereo not shown) [c-tetCASL]
IC50 (ShHTL7 [1]; [5]): 4.61 µM

O=C(O)/C=C\c1ccccc1 [cis-CA, cis-cinnamic acid, reference compound]
lateral root density ([3]; 11 days): increased
primary root length ([3]; 11 days): inhibited
shoot fresh weight ([3]; 20 days): increase

CC1=CC(OC(=O)/C=C/c2ccccc2)OC1=O (stereo not shown) [t-CASL1]
hydrolysis by HTL7 (ShHTL7 [2]): can hydrolyze
hydrolysis by AtD14 (AtD14): can hydrolyze
IC50 (ShHTL6): 1.85 µM
loss (non-enzymatic degradation) in hydroponic culture medium [4]: ~40%
IC50 (ShHTL7 [1]; [5]): 2.05 µM

CC1=CC(OC(=O)/C=C/c2ccc(C)cc2)OC1=O (stereo not shown) [t-CASL2]
IC50 (ShHTL7 [1]; [5]): 1.41 µM

CC1=CC(OC(=O)/C=C/c2ccc(O)cc2)OC1=O (stereo not shown) [t-CASL3]
IC50 (ShHTL7 [1]; [5]): > 10 µM

COc1ccc(/C=C/C(=O)OC2C=C(C)C(=O)O2)cc1 (stereo not shown) [t-CASL4]
IC50 (ShHTL7 [1]; [5]): 2.21 µM

CCOc1ccc(/C=C/C(=O)OC2C=C(C)C(=O)O2)cc1 (stereo not shown) [t-CASL5]
IC50 (ShHTL7 [1]; [6]): 3.97 µM

CC1=CC(OC(=O)/C=C/c2ccc([N+](=O)[O-])cc2)OC1=O (stereo not shown) [t-CASL6]
IC50 (ShHTL7 [1]; [5]): 0.71 µM

CC1=CC(OC(=O)/C=C/c2ccc(F)cc2)OC1=O (stereo not shown) [t-CASL7]
IC50 (ShHTL7 [1]; [5]): 1.55 µM

CC1=CC(OC(=O)/C=C/c2ccc(Br)cc2)OC1=O (stereo not shown) [t-CASL8]
IC50 (ShHTL7 [1]; [5]): 0.7 µM

CC1=CC(OC(=O)/C=C/c2ccc(Cl)cc2)OC1=O (stereo not shown) [t-CASL9]
IC50 (ShHTL7 [1]; [5]): 0.83 µM

CC1=CC(OC(=O)/C=C/c2ccc(C(F)(F)F)cc2)OC1=O (stereo not shown) [t-CASL10]
IC50 (ShHTL7 [1]; [5]): 0.34 µM

CC1=CC(OC(=O)/C=C2\CCc3ccccc32)OC1=O (stereo not shown) [t-indCASL]
IC50 (ShHTL7 [1]; [5]): 3.07 µM
germination-inducing activity compared with the corresponding non-fixed (unfixed) analog (Orobanche minor seeds): much stronger activity

CC1=CC(OC(=O)/C=C2\CCCc3ccccc32)OC1=O (stereo not shown) [t-tetCASL]
IC50 (ShHTL7 [1]; [5]): 3.85 µM
germination-inducing activity compared with the corresponding non-fixed (unfixed) analog (Orobanche minor seeds): much stronger activity
